Assay results: PubChem BioAssay (NCI)
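Cultured in 96-well plates, cells were exposed to test compound for 48 hours across five concentrations. At the TGI there is no net growth.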

Key:
Experiment in all cases: DTP human tumour cell line panel, 48 h
786-0 renal = system: 786-0 renal
A498 renal = system: A498 renal
A549 NSCLC = system: A549 NSCLC
ACHN renal = system: ACHN renal
BT-549 breast = system: BT-549 breast
CAKI-1 renal = system: CAKI-1 renal
CCRF-CEM leukemia = system: CCRF-CEM leukemia
COLO 205 colon = system: COLO 205 colon
DU-145 prostate = system: DU-145 prostate
EKVX NSCLC = system: EKVX NSCLC
HCC-2998 colon = system: HCC-2998 colon
HCT-116 colon = system: HCT-116 colon
HCT-15 colon = system: HCT-15 colon
HL-60(TB) leukemia = system: HL-60(TB) leukemia
HOP-62 NSCLC = system: HOP-62 NSCLC
HOP-92 NSCLC = system: HOP-92 NSCLC
HS 578T breast = system: HS 578T breast
HT29 colon = system: HT29 colon
IGROV1 ovarian = system: IGROV1 ovarian
K-562 leukemia = system: K-562 leukemia
KM12 colon = system: KM12 colon
LOX IMVI melanoma = system: LOX IMVI melanoma
M14 melanoma = system: M14 melanoma
MALME-3M melanoma = system: MALME-3M melanoma
MCF7 breast = system: MCF7 breast
MDA-MB-231 breast = system: MDA-MB-231 breast
MDA-MB-435 = system: MDA-MB-435
MDA-N = system: MDA-N
MOLT-4 leukemia = system: MOLT-4 leukemia
NCI-H226 lung = system: NCI-H226 lung
NCI-H23 lung = system: NCI-H23 lung
NCI-H460 lung = system: NCI-H460 lung
NCI-H522 lung = system: NCI-H522 lung
NCI/ADR-RES ovarian = system: NCI/ADR-RES ovarian
OVCAR-3 ovarian = system: OVCAR-3 ovarian
OVCAR-4 ovarian = system: OVCAR-4 ovarian
OVCAR-5 ovarian = system: OVCAR-5 ovarian
OVCAR-8 ovarian = system: OVCAR-8 ovarian
PC-3 prostate = system: PC-3 prostate
RPMI-8226 leukemia = system: RPMI-8226 leukemia
RXF 393 renal = system: RXF 393 renal
SF-268 CNS = system: SF-268 CNS
SF-295 CNS = system: SF-295 CNS
SF-539 CNS = system: SF-539 CNS
SK-MEL-2 melanoma = system: SK-MEL-2 melanoma
SK-MEL-28 melanoma = system: SK-MEL-28 melanoma
SK-MEL-5 melanoma = system: SK-MEL-5 melanoma
SK-OV-3 ovarian = system: SK-OV-3 ovarian
SN12C renal = system: SN12C renal
SNB-19 CNS = system: SNB-19 CNS
SNB-75 CNS = system: SNB-75 CNS
SW-620 colon = system: SW-620 colon
T-47D breast = system: T-47D breast
TK-10 renal = system: TK-10 renal
U251 CNS = system: U251 CNS
UACC-257 melanoma = system: UACC-257 melanoma
UACC-62 melanoma = system: UACC-62 melanoma
UO-31 renal = system: UO-31 renal

With `O=C(Nc1ccccc1)c1cc(S(=O)(=O)Nc2nc3ncccc3[nH]2)c(SSc2cc(Cl)c(C(=O)Nc3ccccc3)cc2S(=O)(=O)Nc2nc3ncccc3[nH]2)cc1Cl` the TGI (786-0 renal) was > 100 µM, the TGI (A498 renal) was > 100 µM and the TGI (A549 NSCLC) was > 100 µM. For the same compound, the TGI (ACHN renal) was > 100 µM, the TGI (BT-549 breast) was > 100 µM and the TGI (CAKI-1 renal) was > 100 µM. For the same compound, the TGI (CCRF-CEM leukemia) was > 100 µM, the TGI (COLO 205 colon) was > 100 µM and the TGI (DU-145 prostate) was > 100 µM. The TGI (EKVX NSCLC) was > 100 µM, the TGI (HCC-2998 colon) was > 100 µM and the TGI (HCT-116 colon) was > 100 µM. The TGI (HCT-15 colon) was > 100 µM, the TGI (HL-60(TB) leukemia) was > 100 µM and the TGI (HOP-62 NSCLC) was > 100 µM. For the same compound, the TGI (HOP-92 NSCLC) was > 100 µM, the TGI (HS 578T breast) was > 100 µM and the TGI (HT29 colon) was > 100 µM. For the same compound, the TGI (IGROV1 ovarian) was > 100 µM, the TGI (K-562 leukemia) was > 100 µM and the TGI (KM12 colon) was > 100 µM. The TGI (LOX IMVI melanoma) was > 100 µM, the TGI (M14 melanoma) was > 100 µM and the TGI (MALME-3M melanoma) was > 100 µM. For the same compound, the TGI (MCF7 breast) was > 100 µM, the TGI (MDA-MB-231 breast) was > 100 µM and the TGI (MDA-MB-435) was > 100 µM. For the same compound, the TGI (MDA-N) was > 100 µM, the TGI (MOLT-4 leukemia) was > 100 µM and the TGI (NCI-H226 lung) was > 100 µM. For the same compound, the TGI (NCI-H23 lung) was > 100 µM, the TGI (NCI-H460 lung) was > 100 µM and the TGI (NCI-H522 lung) was > 100 µM. The TGI (NCI/ADR-RES ovarian) was > 100 µM, the TGI (OVCAR-3 ovarian) was > 100 µM and the TGI (OVCAR-4 ovarian) was > 100 µM. The TGI (OVCAR-5 ovarian) was > 100 µM, the TGI (OVCAR-8 ovarian) was > 100 µM and the TGI (PC-3 prostate) was > 100 µM. The TGI (RPMI-8226 leukemia) was > 100 µM, the TGI (RXF 393 renal) was > 100 µM and the TGI (SF-268 CNS) was > 100 µM. The TGI (SF-295 CNS) was > 100 µM, the TGI (SF-539 CNS) was > 100 µM and the TGI (SK-MEL-2 melanoma) was > 100 µM. For the same compound, the TGI (SK-MEL-28 melanoma) was > 100 µM, the TGI (SK-MEL-5 melanoma) was > 100 µM and the TGI (SK-OV-3 ovarian) was > 100 µM. The TGI (SN12C renal) was > 100 µM, the TGI (SNB-19 CNS) was > 100 µM and the TGI (SNB-75 CNS) was > 100 µM. The TGI (SW-620 colon) was > 100 µM, the TGI (T-47D breast) was > 100 µM and the TGI (TK-10 renal) was > 100 µM. The TGI (U251 CNS) was > 100 µM, the TGI (UACC-257 melanoma) was > 100 µM and the TGI (UACC-62 melanoma) was > 100 µM. The TGI (UO-31 renal) was > 100 µM.
With `Clc1ccc(Nc2nn3c(CCCCCCCCc4nnc5sc(Nc6ccc(Cl)cc6)nn45)nnc3s2)cc1` the TGI (786-0 renal) was > 100 µM, the TGI (A498 renal) was > 100 µM and the TGI (A549 NSCLC) was > 100 µM. The TGI (ACHN renal) was > 100 µM, the TGI (BT-549 breast) was > 100 µM and the TGI (CAKI-1 renal) was > 100 µM. The TGI (CCRF-CEM leukemia) was > 100 µM, the TGI (COLO 205 colon) was > 100 µM and the TGI (DU-145 prostate) was > 100 µM. For the same compound, the TGI (EKVX NSCLC) was > 100 µM, the TGI (HCC-2998 colon) was > 100 µM and the TGI (HCT-116 colon) was > 100 µM. For the same compound, the TGI (HCT-15 colon) was > 100 µM, the TGI (HOP-62 NSCLC) was > 100 µM and the TGI (HOP-92 NSCLC) was > 100 µM. For the same compound, the TGI (HS 578T breast) was > 100 µM, the TGI (HT29 colon) was > 100 µM and the TGI (K-562 leukemia) was > 100 µM. The TGI (KM12 colon) was > 100 µM, the TGI (LOX IMVI melanoma) was > 100 µM and the TGI (M14 melanoma) was > 100 µM. The TGI (MALME-3M melanoma) was > 100 µM, the TGI (MCF7 breast) was > 100 µM and the TGI (MDA-MB-231 breast) was > 100 µM. The TGI (MDA-MB-435) was > 100 µM, the TGI (MDA-N) was > 100 µM and the TGI (MOLT-4 leukemia) was > 100 µM. For the same compound, the TGI (NCI-H226 lung) was > 100 µM, the TGI (NCI-H23 lung) was > 100 µM and the TGI (NCI-H460 lung) was > 100 µM. The TGI (NCI-H522 lung) was > 100 µM, the TGI (NCI/ADR-RES ovarian) was > 100 µM and the TGI (OVCAR-3 ovarian) was > 100 µM. The TGI (OVCAR-4 ovarian) was > 100 µM, the TGI (OVCAR-5 ovarian) was > 100 µM and the TGI (OVCAR-8 ovarian) was > 100 µM. For the same compound, the TGI (PC-3 prostate) was > 100 µM, the TGI (RPMI-8226 leukemia) was > 100 µM and the TGI (RXF 393 renal) was > 100 µM. The TGI (SF-268 CNS) was > 100 µM, the TGI (SF-295 CNS) was > 100 µM and the TGI (SF-539 CNS) was > 100 µM. For the same compound, the TGI (SK-MEL-2 melanoma) was > 100 µM, the TGI (SK-MEL-28 melanoma) was > 100 µM and the TGI (SK-MEL-5 melanoma) was > 100 µM. The TGI (SK-OV-3 ovarian) was > 100 µM, the TGI (SN12C renal) was > 100 µM and the TGI (SNB-19 CNS) was 80.4 µM. The TGI (SNB-75 CNS) was 62.6 µM, the TGI (SW-620 colon) was > 100 µM and the TGI (T-47D breast) was > 100 µM. The TGI (TK-10 renal) was 96.8 µM, the TGI (U251 CNS) was > 100 µM and the TGI (UACC-257 melanoma) was > 100 µM. For the same compound, the TGI (UACC-62 melanoma) was > 100 µM and the TGI (UO-31 renal) was > 100 µM.
